Experimental data published in patent US7482375B2, “Compounds useful in therapy” (Pfizer Inc., priority 2005, dated 2009).

tested on: not given; assay: not given; details: not given

Row | melting point [°C] | Compound
1 | 163 | CNC(=O)Cn1nc(C2CC2)c(Oc2ccc(C#N)cc2)c1C1CC1 [Example 52, 2-[4-(4-Cyanophenoxy)-3,5-dicyclopropyl-1H-pyrazol-1-yl]-N-methylacetamide]
2 | 156 to 157 | CCOC(=O)Cn1nc(C2CC2)c(Oc2cc(C)c(C#N)c(C)c2)c1C1CC1 (hydrate or solvate) [Example 38, Ethyl[4-(4-cyano-3,5-dimethylphenoxy)-3,5-dicyclopropyl-1H-pyrazol-1-yl]acetate]
3 | 97 | CCc1nn(CCO)c(CC)c1Oc1cc(C)c(C#N)c(C)c1 [Example 27, 4-[3,5-Diethyl-1-(2-hydroxy-ethyl)-1H-pyrazol-4-yloxy]-2,6-dimethyl-benzonitrile]
4 | 147 to 149 | CCOC(=O)Cn1nc(CC)c(Oc2ccc(C#N)cc2)c1CC [Example 35, Ethyl[4-(4-cyanophenoxy)-3,5-diethyl-1H-pyrazol-1-yl]acetate]
5 | 82 | CCc1nn(CCO)c(CC)c1Oc1ccc(C#N)cc1 [Example 21, 4-[3,5-Diethyl-1-(2-hydroxy-ethyl)-1H-pyrazol-4-yloxy]-benzonitrile]
6 | 85 | CCc1nn(CCO)c(CC)c1Oc1ccc(C#N)c(Cl)c1

target: T1, Progesterone Receptor (PR) (Homo sapiens, UniProt P06401); assay: In vitro functional assay for progesterone receptor (PR) antagonism: inhibition of progesterone-induced alkaline phosphatase expression in T47D cells; format: cell-based; details: Screen 1.0, functional progesterone antagonism; antagonist format (5 nM P4), alkaline phosphatase inhibition in T47D human mammary carcinoma cells
T1 construct: endogenous in cells; host or cells: T47D human breast mammary carcinoma cells
T1 sequence (P06401 1-933): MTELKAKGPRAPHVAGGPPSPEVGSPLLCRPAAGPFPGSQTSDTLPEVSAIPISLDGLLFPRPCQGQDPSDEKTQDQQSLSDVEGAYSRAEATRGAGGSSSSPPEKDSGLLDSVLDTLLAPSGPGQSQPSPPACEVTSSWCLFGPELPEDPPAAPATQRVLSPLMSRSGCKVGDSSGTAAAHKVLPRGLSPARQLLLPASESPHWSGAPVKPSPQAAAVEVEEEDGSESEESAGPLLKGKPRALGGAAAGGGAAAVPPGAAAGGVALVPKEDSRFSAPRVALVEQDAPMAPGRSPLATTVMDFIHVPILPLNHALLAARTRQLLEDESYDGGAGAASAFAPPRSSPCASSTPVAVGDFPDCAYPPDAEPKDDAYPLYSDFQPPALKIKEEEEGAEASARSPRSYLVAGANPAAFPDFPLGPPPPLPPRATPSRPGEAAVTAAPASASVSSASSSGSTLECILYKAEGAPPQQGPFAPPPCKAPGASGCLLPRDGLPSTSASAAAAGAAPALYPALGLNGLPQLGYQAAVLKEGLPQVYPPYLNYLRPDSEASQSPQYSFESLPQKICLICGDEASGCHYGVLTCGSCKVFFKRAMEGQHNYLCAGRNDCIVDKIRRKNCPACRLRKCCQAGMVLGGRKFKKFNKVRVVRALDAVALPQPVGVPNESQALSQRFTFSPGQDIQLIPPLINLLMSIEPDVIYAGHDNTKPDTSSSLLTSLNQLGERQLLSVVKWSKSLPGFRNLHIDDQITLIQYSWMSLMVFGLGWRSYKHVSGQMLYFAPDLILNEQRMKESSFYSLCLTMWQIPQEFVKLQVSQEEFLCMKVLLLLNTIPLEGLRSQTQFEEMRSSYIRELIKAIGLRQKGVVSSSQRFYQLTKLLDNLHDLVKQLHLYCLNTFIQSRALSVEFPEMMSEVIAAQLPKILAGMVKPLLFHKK
Source text: 1.0 In vitro Functional Assay for Progesterone Receptor (PR) Antagonism
The assay for PR antagonism takes advantage of the extensively reported modulation of alkaline phosphatase (AP) expression in human breast T47D mammary carcinoma cells {Beck et al., D. P. (1993). The progesterone antagonist RU486 acquires agonist activity upon stimulation of cAMP signalling pathways. Proc Natl Acad Sci USA 90, 4441-4445; Fensome et al. (2002). New progesterone receptor antagonists: 3,3-disubstituted-5-aryloxindoles. Bioorg Med Chem Left 12, 3487-3490; Zhang et al., (2002a). 6-Aryl-1,4-dihydro-benzo d 1,3 oxazin-2-ones: a novel class of potent, selective, and orally active nonsteroidal progesterone receptor antagonists. Journal of Medicinal Chemistry 45, 4379-4382; Zhang et al., (2003). Novel 6-aryl-1,4-dihydrobenzo d oxazine-2-thiones as potent, selective, and orally active nonsteroidal progesterone receptor agonists. Bioorganic & Medicinal Chemistry Letters 13, 1313-1316; Zhang et al., (2002b). Potent nonsteroidal progesterone receptor agonists: synthesis and SAR study of 6-aryl benzoxazines. Bioorganic & Medicinal Chemistry Letters 12, 787-790; Zhang, Z. et al., (2000). In vitro characterization of trimegestone: a new potent and selective progestin. Steroids 65, 637-643.}. […] In the absence of progesterone any agonist activity is also observed as an induction of AP activity. By running the assay in two formats (+/−progesterone (P4)), compounds behaving as PR antagonists, agonists or partials can be identified.
The materials required to grow T47D cells and perform the progesterone-induced AP assay are outlined in Table 1.
Briefly, T47D cells are grown by propagating in DMEM+10% FBS+2 mM Glutamax at 37° C./5% CO2. At 80-90% confluence, the media is exchanged for phenol red free DMEM+5% CS-FCS (Assay media) and cultured for a further 24 hrs at 37° C./5% CO2. T47D cells are then plated at 2.5×10^4 cells/well in 100 μL assay media in sufficient 96 well plates for the assay, in triplicates of each condition. For example, for a 5 point IC50 curve on one compound, this is equivalent to 36 wells (2×18 wells, ±P4). These plates are then cultured for 24 hrs at 37° C./5% CO2, leaving the outside wells blank by the addition of 200 μL PBS.
A 10 mM stock solution of compounds is prepared in DMSO (stored −20° C. in 10 µL aliquots). A 10 mM DMSO stock of RU486 is used as a standard pure PR antagonist. The compounds under investigation are added to assay medium, or a mixture of 0.05% pluronic acid in PBS, ±10 nM P4 to give a final concentration of 20 µM (i.e. 10 µL of the 10 mM stock to […] assay medium ±10 nM P4). The samples are mixed thoroughly and serial dilutions of compounds from 10 µM to 0.1 nM in a 96 well plate, are prepared as follows:
The outside wells are left blank. Assay medium (225 μL) is added to one half of the plate (−P4), rows 3-8, and to the other half of the plate, assay medium +10 nM P4. To row 2, 250 μL of the top concentration of compound (20 μM±10 nM P4) is added. 25 μL of the […] stock from row 2 is removed and added to the 225 μL of assay medium ±10 nM P4 in row 3 and thoroughly mixed. This process is repeated down the plate to row 7 to achieve serial dilutions. The vehicle control is adjusted to contain 0.1% DMSO (i.e. 20 μL to 10 mL assay medium ±10 nM P4 to give a concentration of 0.2% DMSO, add 250 μL to row 8).
100 μL of reagent from the dilution plates are transferred into the corresponding wells containing T47D cells in 100 μL assay medium, to give a final concentration of 10 μM to 0.1 nM compound (5 nM P4 antagonist format). The cells for 20 hrs at 37° C./5% CO2., then media is removed, cells washed with PBS (200 μL) and lysed by placing the cells at −80° C. for 15 min and thawing at room temp. The Freeze-thaw lysis is repeated, then PBS (50 μL) is added to each well. […]

Row | IC50 [nM] | Compound
7 | 5 | CCc1nn(CC#N)c(CC)c1Oc1cc(C)c(C#N)c(C)c1 [Example 87, 4-{[1-(Cyanomethyl)-3,5-diethyl-1H-pyrazol-4-yl]oxy}-2,6-dimethylbenzonitrile]
8 | 4 | CNC(=O)Cn1nc(C2CC2)c(Oc2cc(C)c(C#N)c(C)c2)c1C [Example 71, 2-[4-(4-Cyano-3,5-dimethyl-phenoxy)-3-cyclopropyl-5-methyl-1H-pyrazol-1-yl]-N-methyl-acetamide]
9 | 9 | Cc1cc(Oc2c(C3CC3)n[nH]c2C2CC2)cc(C)c1C#N [Example 4, 4-[(3,5-Dicyclopropyl-1H-pyrazol-4-yl)oxy]-2,6-dimethylbenzonitrile]
10 | 3 | Cc1cc(Oc2c(C3CC3)nn(Cc3cncnc3)c2C2CC2)cc(C)c1C#N [Example 126, 4-({3,5-Dicyclopropyl-1-[(pyrimidin-5-yl)methyl]-1H-pyrazol-4-yl}oxy)-2,6-dimethylbenzonitrile]
11 | 6 | CCCn1nc(CC)c(Oc2ccc(C#N)cc2)c1CC [Example 146, 4-[(3,5-Diethyl-1-propyl-1H-pyrazol-4-yl)oxy]benzonitrile]
12 | 3 | CNC(=O)Cn1nc(C2CC2)c(Oc2cc(C)c(C#N)c(C)c2)c1C1CC1 [Example 65, 2-[4-(4-Cyano-3,5-dimethylphenoxy)-3,5-dicyclopropyl-1H-pyrazol-1-yl]-N-methyl-acetamide]
